Several values for one entry are separate records, joined by “and”; a condition that tells them apart may be missing. Identical values can stand only once.
Columns and labels:
PSMA [1] = biological target: T1, PSMA (Homo sapiens, UniProt Q04609); test: cell-based competitive binding radioassay with [68Ga]PSMA-11 as radioligand on LNCaP cells
T1 construct: host or cells: LNCaP cells
Description: To compare the binding affinity of F‐PSMA‐MIC01 with „gold standard“ PSMA‐tracers, the same assay was performed using the precursor of [^68Ga]PSMA‐11 (Figure 2 D).
Table S3. Counts per minute (CPM) of the 3 indidicually measured triplicates of [18F]PSMA-MIC01 of n- […]
Octanol (CPM) PBS (CPM) BLK (CPM) LogD Mean SD
Prostate cancer cell lines PC-3 and LNCaP were obtained from the American Type Culture Collection (ATCC, Manassas, VA). Cells were cultured in RPMI-1640 (Lonza, Swiss), supplemented with 10 % fetal calf serum (FCS, Thermo Scientific Waltham, MA) at 37°C in a humidified 5 % CO2 atmosphere. To enhance adherence of LNCaP cells tissue culture flasks and/or well plates were pre-coated with poly-D-lysine (Merck) according manufacture protocol. Cells were regularly checked for mycoplasma infection.
6.1. Cell binding studies.
For the determination of the binding affinity, a competitive binding radioassay was performed.
Two 24 well plates were incubated with 50.000 cells 3 to 4 days prior to the cell experiments.
After washing the cells twice with warm PBS, new medium was added. For the binding […]
cold reference compound F-PSMA-MIC01 were added to the wells shortly before 50 µL of the radioligand [68Ga]PSMA-HBED-CC or [18F]PSMA-1007 to reach a final volume of 500 µL in each well. After incubation of 90 min at 37°C under humidified conditions the cells were washed twice with ice-cold PBS to remove unbound tracer. Cells were detached from the wells using Trypsin supplemented with 25 % EDTA and incubated until cells were completely detached. […] The remaining activity in the cells were measured in a γ-counter. Afterwards, the cells were counted in a 1:1 solution of cell suspension and Trypan Blue. The tracer uptake was calculated using Microsoft Excel and corrected for the average number of cells and averaged. The logIC50 value was calculated using the non-linear regression algorithm for a one-site FITlogIC50 using PrismGraphPad 7.2. The graphs represented show the average of the three individual experiments, while the mentioned logIC50 was calculated from the mean of the three

PSMA [2] = biological target: T1, PSMA; test: competitive binding radioassay with [18F]PSMA-1007 as radioactive competitor on LNCaP cells
Description: During the pre‐clinical evaluation of [^18F]PSMA‐MIC01, many hospitals including the University Medical Center Groningen changed from using [^68Ga]PSMA‐11 to [^18F]PSMA‐1007. Therefore, the binding affinities for the 2nd generation PSMA‐tracers‐tracers were determined in a radioassay using [^18F]PSMA‐1007 as radioactive competitor (Figure 1 D). page 20: Table S3. Counts per minute (CPM) of the 3 indidicually measured triplicates of [18F]PSMA-MIC01 of n- octanol and PBS Octanol (CPM) PBS (CPM) BLK (CPM) LogD Mean SD […] No 1.2 2995.66 4176463.25 58.39 -3.15 […] No 2.3 1020.97 1916376.47 30.41 -3.29 -3.22 0.09 6. Cell culture. Prostate cancer cell lines PC-3 and LNCaP were obtained from the American Type Culture Collection (ATCC, Manassas, VA). Cells were cultured in RPMI-1640 (Lonza, Swiss), supplemented with 10 % fetal calf serum (FCS, Thermo Scientific Waltham, MA) at 37°C in a humidified 5 % CO2 atmosphere. To enhance adherence of LNCaP cells tissue culture flasks and/or well plates were pre-coated with poly-D-lysine (Merck) according manufacture protocol. Cells were regularly checked for mycoplasma infection. 6.1. Cell binding studies. For the determination of the binding affinity, a competitive binding radioassay was performed. Two 24 well plates were incubated with 50.000 cells 3 to 4 days prior to the cell experiments. After washing the cells twice with warm PBS, new medium was added. For the binding […] cold reference compound F-PSMA-MIC01 were added to the wells shortly before 50 µL of the radioligand [68Ga]PSMA-HBED-CC or [18F]PSMA-1007 to reach a final volume of 500 µL in each well. After incubation of 90 min at 37°C under humidified conditions the cells were washed twice with ice-cold PBS to remove unbound tracer. Cells were detached from the wells using Trypsin supplemented with 25 % EDTA and incubated until cells were completely detached. 900 µL of medium was added and cells were transferred into tubes. The remaining activity in the cells were measured in a γ-counter. Afterwards, the cells were counted in a 1:1 solution of cell suspension and Trypan Blue. The tracer uptake was calculated using Microsoft Excel and corrected for the average number of cells and averaged. The logIC50 value was calculated using the non-linear regression algorithm for a one-site FITlogIC50 […] The graphs represented show the average of the three individual experiments, while the mentioned logIC50 was calculated from the mean of the three experiments; 19

[3] = distribution coefficient logD, n-octanol/PBS; assay type: physicochemical; conditions: n-octanol/PBS, pH 7.4, n-octanol/PBS pH 7.4; overall mean
Description: page 19: Figure S3: HPLC purification of [18F]PSMA-MIC02 (A) and after 4 h (B). 5. Distribution coefficient LogD. […] cup. 100 µL of the formulated final solution of [18F]PSMA-MIC01 or [18F]PSMA-MIC02 was added and vortexed for 1 minute and centrifuged for 5 min at […]. The different layers were separated and 100 µL of each layer were measured on a γ-counter. Based on the counts per minute (CPM) of each fraction, the partition coefficient was measured with the following formula: log(CPMoctanol/CPMPBS). The obtained data are as followed. Table S2. Counts per minute (CPM) of the 3 indidicually measured triplicates of [18F]PSMA-MIC01 of n- octanol and PBS. Octanol (CPM) PBS (CPM) BLK (CPM) LogD Mean SD […] No 1.2 2823.43 2715328.33 93.59 -2.99 […] No 2.3 394.49 640463.84 93.59 -3.21 […] No 3.2 3690.69 2357291.58 50.84 -2.81 No 3.3 5848.38 3956671.48 52.31 -2.83 -3.01 0.22 18 (1 picture or pasted object on this page, not shown here)

LNCaP tumor = tested on: LNCaP tumor; set-up: method as in PMID 27789722; conditions: cited from earlier work
LNCaP (PSMA+) xenografts = test: ex vivo organ distribution, LNCaP xenograft mice; assay type: in vivo, Balb/c nude mice; conditions: LNCaP (PSMA+) xenograft, dissected after PET scan
Description: All groups were evaluated by visual assessment of the PET image and the percentage injected dose per gram (%ID g^−1).
The animal experiments were all performed according to the ethical guidelines and approved by the local animal welfare committee of the University of Groningen (IvD number 15166-06-001. All animals were caged separately in individually ventilated cages.
7-12 week old immune deficient Balb/c nude mice were inoculated with 200 µL of a 1:1 suspension of medium containing approximately 4 x10^6 LNCaP cells (PSMA positive cells) or 5 x 10^6 PC3 cells (PSMA-negative cells) in RPMI-1640, and Matrigel Basement Membrane Matrix High concentration. The cells were subcutaneously inoculated on the right shoulder.
After 3 to 5 weeks for LNCaP-xenografts, 2-3 weeks for PC3-xenografts or when a tumor size of 1cm3 was reached, the animals were transported to the PET imaging facility. For the […]
prepared and 100 µL were injected via penile vein injection 30 min prior to the tracer injection. Animals were anesthetized at 5 % isoflurane and maintained under 2 % isoflurane enriched with O2. The dynamic PET scan was started within 5 min after tracer injection with an acquisition time of 90 min. The static scan was performed 60 min after tracer injection with an acquisition time of 30 min.
7.2. Organ distribution and Metabolite analysis.
After sacrificing the animals, the organs were dissected and measured in a γ-counter. The obtained CPM’s were normalized to %ID/g (Table shown in main text). […]
In order to check for the significant differences, we also checked for the Cohen’s d, a measurement to determine the effect size. It is calculated on the following formula:
Cohen′sD = Mean1− Mean2 . […]

[4] = given as logIC50, single experiments, radioligand [18F]PSMA-1007, read-out: logIC50, individual experiments (converted)

T1 sequence (Q04609 whole entry): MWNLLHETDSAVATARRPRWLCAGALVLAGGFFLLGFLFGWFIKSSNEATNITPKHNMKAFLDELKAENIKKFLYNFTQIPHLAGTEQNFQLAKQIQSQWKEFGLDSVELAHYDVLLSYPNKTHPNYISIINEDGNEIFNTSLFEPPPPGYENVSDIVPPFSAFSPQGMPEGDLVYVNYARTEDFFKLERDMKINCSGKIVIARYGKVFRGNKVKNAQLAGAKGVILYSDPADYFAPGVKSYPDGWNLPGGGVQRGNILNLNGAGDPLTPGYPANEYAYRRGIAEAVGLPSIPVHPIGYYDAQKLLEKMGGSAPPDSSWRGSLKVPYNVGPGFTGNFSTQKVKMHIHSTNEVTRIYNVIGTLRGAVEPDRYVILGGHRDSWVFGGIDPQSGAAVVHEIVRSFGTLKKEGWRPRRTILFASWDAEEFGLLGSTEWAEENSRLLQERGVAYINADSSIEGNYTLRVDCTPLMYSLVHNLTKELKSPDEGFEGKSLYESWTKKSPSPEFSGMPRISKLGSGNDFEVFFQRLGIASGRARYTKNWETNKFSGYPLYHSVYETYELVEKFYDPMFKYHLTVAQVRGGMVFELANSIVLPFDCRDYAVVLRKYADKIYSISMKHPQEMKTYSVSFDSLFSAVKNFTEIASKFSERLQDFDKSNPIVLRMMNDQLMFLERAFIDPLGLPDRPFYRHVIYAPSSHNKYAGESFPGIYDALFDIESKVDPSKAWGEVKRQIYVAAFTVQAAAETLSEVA

## O=C(O)CC[C@H](NC(=O)N[C@@H](CCCCNC(=O)c1ccc(-c2cn(CCOCCOCCF)nn2)cc1)C(=O)O)C(=O)O [F-PSMA-MIC01]
PSMA [1]; given as logIC50, single experiments, radioligand [68Ga]PSMA-11, read-out: logIC50, individual experiments (No 1-3) (converted)
  IC50: 57.5 nM and 138 nM and 257 nM
PSMA [1]; printed as logIC50 (negative values), mean of three experiments, radioligand [68Ga]PSMA-11, 90 min 37°C, read-out: logIC50 (converted)
  IC50: 129 nM
PSMA [2]; [4]
  IC50: 363 nM and 851 nM and 219 nM

## O=C(O)CC[C@H](NC(=O)N[C@@H](CCCCNC(=O)c1ccc(Cn2cc(COCCOCCF)nn2)cc1)C(=O)O)C(=O)O [F-PSMA-MIC03]
PSMA [2]; printed as logIC50 (negative values), mean of n=3 (MIC03 n=4), radioligand [18F]PSMA-1007, read-out: logIC50 (converted)
  IC50: 275 nM

## O=C(O)CCc1ccc(O)c(CN(CCN(CC(=O)O)Cc2cc(CCC(=O)NCCCCCC(=O)NCCCC[C@H](NC(=O)N[C@@H](CCC(=O)O)C(=O)O)C(=O)O)ccc2O)CC(=O)O)c1 [precursor of PSMA-11, reference compound]
PSMA [1]; given as logIC50, single experiments, radioligand [68Ga]PSMA-11, listed as PSMA-11 precursor
  logIC50, individual experiments (No 1-3): -7.12 and -7.03 and -7.53

## O=C(O)CC[C@H](NC(=O)N[C@@H](CCCCNC(=O)c1ccc(-c2cn(CCOCCOCCOc3ccc(CCF)cc3)nn2)cc1)C(=O)O)C(=O)O [F-PSMA-MIC02]
PSMA [2]; [4]
  IC50: 44.7 nM and 45.7 nM and 30.9 nM

## O=C(O)CC[C@H](NC(=O)N[C@@H](CCCCNC(=O)c1ccc(-c2cn(CCOCCOCCOc3ccc(CC[18F])cc3)nn2)cc1)C(=O)O)C(=O)O [[^18F]PSMA‐MIC02]
[3]
  logD: -3.22 ± 0.1

## O=C(O)CC[C@H](NC(=O)N[C@@H](CCCCNC(=O)c1ccc(Cn2cc(COCCOCCOc3ccc(CCF)cc3)nn2)cc1)C(=O)O)C(=O)O [F-PSMA-MIC04]
PSMA [2]; [4]
  IC50: 245 nM and 151 nM and 490 nM

## O=C(O)CC[C@H](NC(=O)N[C@@H](CCCCNC(=O)[C@H](Cc1ccc2ccccc2c1)NC(=O)c1ccc(CNC(=O)[C@H](CCC(=O)O)NC(=O)[C@H](CCC(=O)O)NC(=O)c2ccc([18F])nc2)cc1)C(=O)O)C(=O)O [[^18F]PSMA‐1007]
LNCaP tumor
  LNCaP tumor uptake: 8.04±2.4 %ID g^−1

## O=C([O-])CN(CCN(CC(=O)[O-])Cc1cc(CCC(=O)NCCCCCC(=O)NCCCC[C@H](NC(=O)N[C@@H](CCC(=O)O)C(=O)O)C(=O)O)ccc1[O-])Cc1cc(CCC(=O)O)ccc1[O-].[68Ga+3].[OH3+] [[^68Ga]PSMA‐11, reference compound]
LNCaP (PSMA+) xenografts
  ex vivo uptake bone: 0.1±0.1 %ID g^−1
  ex vivo uptake brain: 0.0±0.0 %ID g^−1
  ex vivo uptake heart: 0.2±0.0 %ID g^−1
  ex vivo uptake kidney: 69.1±21.1 %ID g^−1
  ex vivo uptake large intestine: 0.7±0.9 %ID g^−1
  ex vivo uptake liver: 0.2±0.3 %ID g^−1
  ex vivo uptake lungs: 1.1±0.4 %ID g^−1
  ex vivo uptake muscles: 0.2±0.1 %ID g^−1
  ex vivo uptake pancreas: 0.6±0.6 %ID g^−1
  ex vivo uptake plasma: 1.0±0.5 %ID g^−1
  ex vivo uptake salivary glands: 0.9±0.4 %ID g^−1
  ex vivo uptake small intestine: 0.5±0.6 %ID g^−1
  ex vivo uptake spleen: 15.9±7.3 %ID g^−1
  ex vivo uptake stomach: 0.4±0.2 %ID g^−1
  ex vivo uptake tumor: 6.8±6.3 %ID g^−1
  ex vivo uptake urine: 45.4±30.8 %ID g^−1
  ex vivo uptake whole blood: 2.2±3.8 %ID g^−1
